Laboratory results: the supplement of paper PMC10307832

What was measured:
Experiment in all cases: relative viability (nuclei count vs DMSO), 5 days (fraction); higher = more cells survive
AZD6482 + Navitoclax = compound: Cc1cc([C@@H](C)Nc2ccccc2C(=O)O)c2nc(N3CCOCC3)cc(=O)n2c1 [AZD6482] + CC1(C)CCC(c2ccc(Cl)cc2)=C(CN2CCN(c3ccc(C(=O)NS(=O)(=O)c4ccc(N[C@H](CCN5CCOCC5)CSc5ccccc5)c(S(=O)(=O)C(F)(F)F)c4)cc3)CC2)C1 [Navitoclax] (partner 0.5 µM)
In short: (§1)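 Relative viability is defined as nuclei in treated wells over nuclei in vehicle wells. Duplicate plates were run and medians reported. Lung cancer cell lines in 1536-well plates were dosed by pin tool one day after seeding, with one drug or with a fixed anchor-drug dose plus five library-drug doses (not always all listed) in √10 steps, and nuclei were counted after 5 days.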

[1] = compound: COc1cc2nc(N3CCCN(C)CC3)nc(NC3CCN(Cc4ccccc4)CC3)c2cc1OC + CC(=O)Nc1cccc(-n2c(=O)n(C3CC3)c(=O)c3c(Nc4ccc(I)cc4F)n(C)c(=O)c(C)c32)c1 [Trametinib] (partner 0.02 µM)
In short: as §1

AZD6482 = compound: Cc1cc([C@@H](C)Nc2ccccc2C(=O)O)c2nc(N3CCOCC3)cc(=O)n2c1 [AZD6482]
In short: (§2)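 Lung cancer cell lines were seeded into 1536-well plates, kept overnight at 37 °C and pinned with five library-drug doses (not always all listed) spaced by √10. After 5 days, nuclei were Hoechst-stained, imaged at 4× and counted with MetaXpress. Viability is treated-well nuclei over vehicle-well nuclei, taken as a median across plates. Plates needed control CV below 25% and at least one doubling.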

[2] = compound: COc1cc2nc(N3CCCN(C)CC3)nc(NC3CCN(Cc4ccccc4)CC3)c2cc1OC
In short: as §2

Cell Line	relative viability (AZD6482 + Navitoclax; first compound 0.08 µM)	relative viability (AZD6482 + Navitoclax; first compound 0.253 µM)	relative viability (AZD6482 + Navitoclax; first compound 0.8 µM)	relative viability (AZD6482 + Navitoclax; first compound 2.53 µM)	relative viability (AZD6482 + Navitoclax; first compound 8 µM)	relative viability ([1]; first compound 0.2 µM)	relative viability ([1]; first compound 0.6325 µM)	relative viability ([1]; first compound 2 µM)	relative viability ([1]; first compound 6.325 µM)	relative viability (AZD6482; 0.08 µM)	relative viability (AZD6482; 0.253 µM)	relative viability (AZD6482; 0.8 µM)	relative viability (AZD6482; 2.53 µM)	relative viability (AZD6482; 8 µM)	relative viability ([2]; 0.2 µM)	relative viability ([2]; 0.6325 µM)	relative viability ([2]; 2 µM)	relative viability ([2]; 6.325 µM)
EMC-BAC-2	1.09	1.08	1.12	0.916	0.971	0.873	0.857	0.899	0.732	0.976	0.898	1.01	0.722	0.748	1.14	0.981	0.996	1.04
LK-2	0.779	0.716	0.932	0.681	0.782	0.813	0.928	0.633	0.881	1.07	0.915	1.07	0.818	0.781	1	1.09	1.06	0.995
NCI-H2126	0.744	0.671	0.727	0.571	0.543	0.532	0.572	0.513	0.508	0.916	0.94	0.891	0.585	0.654	0.996	1.02	0.998	0.926
NCI-H3122	0.96	1.01	1.07	0.894	0.97	0.239	0.199	0.197	0.208	1	1.02	1.01	0.756	0.915	0.932	0.959	1.04	0.998
NCI-H1975	0.919	1.05	1.17	0.856	0.786	0.369	0.41	0.346	0.322	0.853	0.84	0.939	0.652	0.573	0.974	0.999	1.15	1
NCI-H1299	0.982	1.04	1.1	0.917	1.04	–	–	–	–	0.998	1.07	1.14	0.914	1.02	0.984	1.03	1.06	0.97
LCLC-103H	–	–	–	–	–	0.682	0.745	0.743	0.671	0.875	1.04	0.948	0.655	0.575	0.992	1.03	1.1	0.978
ABC-1	–	–	–	–	–	–	–	–	–	0.953	0.897	0.97	0.849	0.713	0.924	1.12	1	0.926
NCI-H650	–	–	–	–	–	1.01	1.06	1	0.978	1.07	–	0.92	0.653	0.685	0.973	0.935	1.09	0.862
SW 900	–	–	–	–	–	0.661	0.753	0.584	0.688	0.675	0.683	0.691	0.486	0.778	0.81	1.03	0.89	0.752
NCI-H661	–	–	–	–	–	0.612	0.563	0.648	0.586	0.981	0.98	0.973	0.671	0.851	0.978	0.987	1	1.01
NCI-H1563	–	–	–	–	–	–	–	–	–	0.829	0.852	0.906	0.763	0.722	0.974	0.963	0.967	0.966
A549	1.07	1.25	1.06	0.607	0.961	–	–	–	–	0.935	0.965	0.947	0.566	0.769	1.02	1.01	0.992	0.935
NCI-H2342	–	–	–	–	–	0.916	0.963	0.818	0.803	0.892	0.87	0.92	0.653	0.688	1.02	0.887	0.956	0.995
NCI-H1623	–	–	–	–	–	–	–	–	–	0.899	0.947	0.955	0.76	0.632	0.933	0.965	0.979	0.966
NCI-H522	–	–	–	–	–	0.754	0.728	0.749	0.817	0.959	0.789	0.981	0.926	0.768	0.987	1.01	0.936	1.02
IA-LM	0.859	0.979	0.977	0.618	0.744	–	–	–	–	0.979	0.99	1.03	–	0.842	0.941	0.865	1.08	0.862
NCI-H358	–	–	–	–	–	0.132	0.16	0.121	0.126	0.856	0.86	0.92	0.468	0.489	0.918	1.03	0.939	0.684
EBC-1	0.273	0.318	0.322	0.191	0.241	–	–	–	–	0.881	0.923	0.855	0.467	0.449	0.948	0.9	0.976	0.827
